The data set can be described thus: stability of simvastatin at incubation temperature (inferred from growth inhibition). The settings on record: 95° C. compared with 85° C.

As for `CCC(C)(C)C(=O)O[C@H]1C[C@@H](C)C=C2C=C[C@H](C)[C@H](CC[C@@H]3C[C@@H](O)CC(=O)O3)[C@H]21` [simvastatin], the stability of simvastatin entry was “dramatically decreased”.

The values above are taken from patent US20110262954A1, “SHUTTLE VECTOR BASED TRANSFORMATION SYSTEM FOR PYROCOCCUS FURIOSUS” (UNIVERSITAT REGENSBURG, priority 2010, published 2011).
